Marks after values point to notes of the source that are not given here.
Columns and labels:
[1] = test system: acetic acid-induced writhing; assay: Anti-nociception writhing test (acetic acid); assay type: in vivo, Fisher 344 rats; conditions: 0.0057 mmol/kg body weight i.p., 0.6% acetic acid after 30 min
Description: The acetic acid-induced writhing test is a quick, simple and reproducible method, despite the fact that it lacks specialization. […] The animals (Fisher 344 rats), were housed under standard conditions, and received a diet of commercial food pellets and water ad libitum during the maintenance, but were entirely fasted during the experiment period. Both sexes were used, while pregnant females were excluded. Each group was composed of 6–15 animals. Our studies were in accordance with recognized guidelines on animal experimentation (guidelines for the care and use of laboratory animals published by the Greek Government 160/1991, based on EU regulations 86/609). Rats were kept in the Centre of the School of Veterinary Medicine (EL54 BIO42), Aristotle University of Thessaloniki, which is registered by the official state veterinary authorities (presidential degree 56/2013, in harmony with the European Directive 2010/63/EEC). The experimental protocols were approved by the Animal Ethics Committee of the Prefecture of Central Macedonia. For the study of the analgesic activity of the tested compounds, pain is provoked with acetic acid. Animals were divided in three five-membered groups, according to our reported method. After treatment with the tested compounds (0.0057 mmol/kg body weight; intraperitoneally) in the first group, the second group was used as a positive control (aspirin; 0.0057 mmol/kg body weight i.p.) and the third group served as the control in which saline was administered (negative control). After 30 min, 0.6% acetic acid (1 mL/kg body weight) was injected i.p. The number of writhes was recorded for each animal every 5 min during a subsequent 30 min period (Table 6).

[2] = test system: adjuvant-induced disease (AID); assay: Adjuvant-induced disease (AID); assay type: in vivo, Fisher 344 rats; conditions: AID rats
Experimental: Adjuvant-induced disease (AID) is a good experimental model for rheumatoid arthritis, and is often used in testing agents for anti-inflammatory activity. The compound was administered intraperitoneally on the 1st day, i.e., the day of the administration of Freund’s adjuvant (FA), and once every other day for the following 24 days. Adjuvant arthritis was developed about 14 days post-FA administration. […] The effect of the tested compound on inflammation is shown in Table 7 and the time course of adjuvant arthritis development expressed as arthritic score is shown in Figure 2. In the same experimental model, Indomethacin (IMA) was used as a reference compound.
(§1) The animals (Fisher 344 rats), were housed under standard conditions, and received a diet of commercial food pellets and water ad libitum during the maintenance, but were entirely fasted during the experiment period. Both sexes were used, while pregnant females were excluded. Each group was composed of 6–15 animals. Our studies were in accordance with recognized guidelines on animal experimentation (guidelines for the care and use of laboratory animals published by the Greek Government 160/1991, based on EU regulations 86/609). Rats were kept in the Centre of the School of Veterinary Medicine (EL54 BIO42), Aristotle University of Thessaloniki, which is registered by the official state veterinary authorities (presidential degree 56/2013, in harmony with the European Directive 2010/63/EEC). The experimental protocols were approved by the Animal Ethics Committee of the Prefecture of Central Macedonia.
Rats were divided into four groups (five-membered groups of animals were used): groups one, two and three were injected intradermally with 0.1 mL Freund’s adjuvant (FA) into the base of the tails of the animals; group three was the FA control rats; group four was injected with saline, used as an absolute control. Compound 2d (group 1) and indomethacin (group 2) were injected i.p. once every other day for the following 24 days in a dose of 0.00057 mmol/mL/kg body weight (Table 7). Adjuvant arthritis was developed circa 14 days post-FA administration. Arthritic score was measured every 2 days from the commencement (14th day) day. Arthritic score was assessed on the 24th day. For quantification of arthritis (arthritic score); a single point was assigned for each wrist or ankle area and an additional point was given for each involved phalangeal joint, up to a maximum of five points per extremity.
On the 24th day and at least 12 h after the last injection, animals were administered zoxazolamine i.p. […], as an aqueous suspension with a few drops of Tween 80, and the duration of the paralysis were assessed (Table 7) (Figure 2). The experiment was conducted in duplicate.

[3] = test system: carrageenin-induced rat paw edema; assay: Inhibition of the carrageenin-induced rat paw edema; assay type: in vivo, Fisher 344 rats; conditions: 0.0057 mmol/Kg body weight, intraperitoneally, 3.5 h after carrageenin
Description: The carrageenin-induced rat paw edema assay was used, as a model of acute inflammation. Inflammation induced by carrageenan is acute, non-immune, well-researched, and highly reproducible, and is described as a biphasic event. Cardinal signs of inflammation—edema, hyperalgesia, and erythema, are developed immediately following subcutaneous injection, resulting from the action of pro-inflammatory agents: bradykinin, histamine, tachykinins, complement reactive oxygen and nitrogen species. It is known that NSAIDs act during the second phase of prostaglandin release, presenting weak activity in the first phase of histamine and serotonin release.
as §1
Carrageenin in water as an intradermal injection of 0.1 mL 2% was used for the induction of the edema in the right hind paw of the rats, according to the previously reported method. Animals were divided in five-membered groups and the tested compounds were suspended in water (0.0057 mmol/kg body weight), with a few drops of Tween 80, ground in a mortar before administered intraperitoneally simultaneously. The rats were euthanized 3.5 h after carrageenin injection. Comparison of the change in paw weight with that in control animals (treated with water) was expressed as a percent inhibition of the oedema CPE% values using indomethacin (IMA) as a reference compound. Values CPE% are the mean from two different experiments with a standard error of the mean less than 10% (Table 5). Student’s T test was applied.

[4] = Reducing activity of the stable radical DPPH; assay type: biochemical
Experimental: The novel derivatives were studied for their interaction with the stable 2,2-diphenyl-1-picrylhydrazyl free radical (DPPH) at concentrations 50 µM, 100 µM, 200 µM and after 20 and 60 min (Table 3). This assay is based on the reduction of the DPPH by transferring an electron from the antioxidant. […] However, it seems that the interaction is dependent on the concentration and on the reaction time. From this point of view, it can be concluded that the acetyl pyrazolyl derivatives 2c and 2f seem to present the highest scavenging activities. An increase in concentration favors the activity. […] As for compounds 2a, 2b, 2c and 2f, activity seems to be time dependent at 200 µM. […] The presence of a chlorine group in 2e pyrazoline leads to an activity increase (compared to 2d) in concentration 200 µM. The acetyl derivative 2f presents better activity than 2b at 200 µM.
(§2) A stock solution (1% DMSO in the appropriate buffer with the tested compound diluted under sonication) was prepared for the in vitro assays from which several dilutions were made with the appropriate buffer. The in vitro experiments were performed at least in triplicate, and the standard deviation of absorbance was less than 10% of the mean.
A stock solution (10 mM) of the novel derivatives in DMSO was prepared and an equal volume of it was added to a solution of DPPH in absolute ethanol to reach final concentrations 50, 100 µM and 200 µM. The absorbance was recorded at 517 nm, after 20 and 60 min at room temperature (Table 3).

[5] = ABTS+ decolorization assay for antioxidant activity; assay type: biochemical
Description: Pyrazolines 2d and 2e which are the most lipophilic compounds, showing antioxidant activity using the ABTS radical cation (ABTS^•+) generated through potassium persulfate by oxidation with no participation of an intermediary radical. This reduction is completed by adding electron-donating antioxidants. It seems that lipophilicity influences the activity, since both present high lipophilicity values.
as §2
The ABTS radical cation (ABTS^+•) was generated by mixing ABTS stock solution in water (7 mM) with potassium persulfate (2.45 mM) and left in the dark at room temperature for 12–16 h before use. The results are recorded immediately after the mixing solutions at 734 nm. The results were compared to the appropriate standard inhibitor Trolox (Table 4).

[6] = Inhibition of linoleic acid lipid peroxidation (AAPH); assay type: biochemical
Experimental: For the lipid peroxidation study, 2,2′-azobis(2-amidinopropane) hydrochloride (AAPH) was used for the generation of peroxyl radicals. The generation of the conjugated diene hydroperoxide derived from the oxidation of sodium linoleate in an aqueous solution was recorded at 234 nm. The compounds presented high anti-lipid peroxidation activity (78–100%) (Table 4). Pyrazolines 2a and 2b present lower anti-lipid peroxidation activity (89% and 78% respectively).
as §2
AAPH was used as free radical initiator of alkylperoxyl radicals. The ability of the compounds to prevent the oxidation of linoleic acid sodium salt from alkylperoxyl radicals was recorded at 234 nm. Trolox was used as reference (93%) (Table 4).

[7] = 0.00057 mmol/mL/kg i.p. every other day for 24 days

For `CC(=O)Oc1ccccc1C(=O)O` [Aspirin, acetylsalicylic acid, reference compound], which “Writhing Inhibition (%)” value [1] is on record?
The value was 77 ** %.

For `COc1ccc2c(c1)c(CC(=O)O)c(C)n2C(=O)c1ccc(Cl)cc1` [Indomethacin, reference compound], which “Percent change in body weight (g ± SD)” value [2, 7] is on record?
Its value is 8.3 ± 0.2 g.

And the “Percent change in liver weight (g ± SD)” value [2, 7]?
The value was 6.3 ± 0.4 g.

And the “Zoxazolamine paralysis (minutes ± SD)” value ([2]; 24th day, zoxazolamine i.p.)?
Its value is 217 ± 17 min.

What about the “CPE % (reduction in the rat paw edema induced by carrageenin)” value [3] of the same molecule?
The value was 47 ** %.

What does the source list for `CC(Cc1ccc(O)c(O)c1)C(C)Cc1ccc(O)c(O)c1` (stereo not drawn) [NDGA, Nordihydroguaretic acid, reference compound]?
RA% 50 µM 20 min ([4]; 50 µM, 20 min): 81%; RA% 50 µM 60 min ([4]; 50 µM, 60 min): 83%; RA% 100 µM 20 min ([4]; 100 µM, 20 min): 87%; RA% 200 µM 20 min ([4]; 200 µM, 20 min): 94%; RA% 200 µM 60 min ([4]; 200 µM, 60 min): 96%

Which “ABTS^+ % 100 µM (decolorization activity)” value [5] does the source give for `Cc1c(C)c2c(c(C)c1O)CCC(C)(C(=O)O)O2` (stereo not drawn) [Trolox, 6-Hydroxy-2,5,7,8-tetramethyl-chroman-2-carboxylic acid, reference compound] here?
The value was 91%.

And the “AAPH% 100 µM (anti-lipid peroxidation)” value [6]?
The value was 93%.

From paper PMC8201324, “Pyrazoles and Pyrazolines as Anti-Inflammatory Agents” (Molecules, 2021)
